The values below come from patent publication EP0639202B1, “STABLE POLYPEPTIDE COMPOSITION” (COR THERAPEUTICS, INC., priority 1992, dated 1993).

Where a SMILES comes first, the peptide text is derived from it. Bridges are numbered along the chain shown (N, C = ends). [ ]: non-standard residue; d: D form. hArg = N=C(N)NCCCC[C@H](N)C(=O)O; Mpa = O=C(O)CCS

The test system of one series is M21 melanoma cells. Briefly: Cell adhesion assay: 35S-methionine labelled cells on vitronectin-coated plates. It counts as cell-based. The conditions noted are these: for effect on cell adhesion / attachment to vitronectin (in words): M21 melanoma cells, vitronectin-coated plates. The procedure: M21 melanoma cells were labelled with ^35S-methionine, and then added to vitronectin-coated plates in the presence of the indicated concentrations of purified snake venom peptides. Cell attachment was measured by solubilizing the cells remaining after an incubation and wash, as previously describe.

Series [1] has as its target ADP-induced human platelet aggregation (Homo sapiens, UniProt P05106+P08514). Put plainly: Standard platelet aggregation inhibition assay. Format: cell-based. The text has this:
In addition to the above plate assays, other assays for platelet aggregation inhibition activity and related activities are also available, as set forth above. In summary, a list of commonly employed assays is as follows: • 1. The plate assays utilizing specific receptors described in the previous paragraphs; • 2. Standard assays directly applied to platelet aggregation, such as those described by Gann, Z.-R., et al., J Biol Chem (1988) 263:19827-19832; Huang, T.F., et al., J Biol Chem (1987) 262:16157-16163; Biochemistry (1989) 28:661-666, cited above and incorporated herein by reference; • 3. An in vivo thrombosis model in dogs as described by Folts, J.D., et al., Circulation (1976) 54:365; and • 4. Effect on cell adhesion using S35 methionine-labeled cells as described hereinbelow in Example 10.
IC50 values for the analogs of the invention in this assay are as follows:
A solution was formed in 1.0 M citric acid of greater than 95% pure cyclic form of Mpr-L-homoarginine-Gly-Asp-Trp-Pro-Cys-NH2 • acetate polypeptide (I) at a concentration of up to 200 mg per ml of solution. This solution was diluted to the desired final peptide concentration as follows: This solution was first diluted to about 85% of the final volume with water. The pH of the solution was adjusted to 5.0-5.5 using sodium hydroxide. The solution was then diluted to the final volume with water. Compositions having a concentration of (I) of 0.5 mg/ml and 5.0 mg/ml were formulated and evaluated for stability by HPLC, UV and visual inspection as described in Example 1. The compositions were also evaluated for platelet aggregation inhibiting activity using the assay described above.

Series [2] can be described thus: Storage stability of polypeptide in citrate buffer solution, analysed by reversed phase HPLC. It counts as physicochemical. As for the experimental part:
One ml aliquots of the above solution of polypeptide in citrate buffer were sealed in borosilicate glass ampules under sterile conditions and stored at a constant temperature. Test sample ampules from each pH and temperature condition 4°C, 50°C and 70°C were removed periodically, visually assessed and then analyzed separately by HPLC using a mobile phase comprising acetonitrile (MeCN) and 0.1% trifluoroacetic (TFA) in water. This stability was evaluated by conventional assay methods applicable to purity, weight or size of polypeptides. These included not only visual evaluations, such as discoloration, transparency and precipitation, and included assays normally applied to separate polypeptides from each other and from other materials by reversed phase high performance liquid chromatography (HPLC).
Results of these experiments are set forth in Table 1 in which the stability is expressed in terms of the percentage of main peak of original polypeptide found in the sample analyzed by HPLC. The composition was also found to be normal on visual evaluation. […]

Another series concerns the target T1, GP IIb-IIIa (Homo sapiens, UniProt P05106+P08514).
T1 construct: from tissue
Briefly: Plate assay: inhibition of fibrinogen binding to immobilized GP IIb-IIIa. The conditions noted are these: for differential: inhibiting the binding of fibrinogen to GP IIb-IIIa as compared to vitronectin to vitronectin receptor (in words): plate assays. The procedure:
In the assay, GP IIb-IIIa, prepared in purified form, for example as described by Fitzgerald, L.A., et al., Anal Biochem (1985) 151:169-177, incorporated herein by reference, is coated onto a solid support such as beads, test tubes, or microtiter plates. The coated support is then contacted with fibrinogen and with the test material and incubated for a sufficient time to permit maximal binding of fibrinogen to the immobilized GP IIb-IIIa. Fibrinogen is typically provided at a concentration of about 5-50 nM and the test material can, if desired, be added at a series of dilutions. Typical incubations are 2-4 hr at 35°C, the time and temperature being interdependent.
After incubation, the solution containing the fibrinogen and test material is removed and the level of binding of fibrinogen measured by quantitating bound fibrinogen to GP IIb-IIIa. Any suitable means of detection can be used, but it is convenient to employ labeled fibrinogen, for example using radioactive, fluorescent or biotinylated labels. Such methods are well known and need not be elaborated here.
Assessment of the results is aided by employing a control sample, usually identical to the test sample except that the test substance is absent. In this case, percent inhibition may be calculated using the basis, so that % inhibition =(control - test)/(control)x 100. [formula] Other measures of inhibition effectiveness, such as IC50, can also be used.

In the next series the target is vitronectin receptor (Homo sapiens, UniProt P05106+P06756). Briefly: Plate assay: inhibition of vitronectin binding to vitronectin receptor. The conditions noted are these: at concentrations up to 1 uM. The text has this:
The PAI assay systems further include characterization of the PAI specificity by binding inhibition assays identical to that above but substituting other adhesive proteins for Fg and other receptors for GP IIb-IIIa. In particular, inhibition of the binding of vitronectin to the vitronectin receptor; fibronectin to the fibronectin receptor; fibronectin to GP IIb-IIIa and fibrinogen and/or vWF to GP IIb-IIIa can be assessed. The adhesive protein and receptors for these assays are available in the art.

Series [3] can be described thus: Storage stability of polypeptide in citrate buffer solution, analysed by reversed phase HPLC. Format: physicochemical. Details: key: % of main peak of original polypeptide found by HPLC. To be noted: 25 mM citrate buffer pH 5.25, about 1 mg/mL.

Chain of ADP-induced human platelet aggregation (P08514 32-1039): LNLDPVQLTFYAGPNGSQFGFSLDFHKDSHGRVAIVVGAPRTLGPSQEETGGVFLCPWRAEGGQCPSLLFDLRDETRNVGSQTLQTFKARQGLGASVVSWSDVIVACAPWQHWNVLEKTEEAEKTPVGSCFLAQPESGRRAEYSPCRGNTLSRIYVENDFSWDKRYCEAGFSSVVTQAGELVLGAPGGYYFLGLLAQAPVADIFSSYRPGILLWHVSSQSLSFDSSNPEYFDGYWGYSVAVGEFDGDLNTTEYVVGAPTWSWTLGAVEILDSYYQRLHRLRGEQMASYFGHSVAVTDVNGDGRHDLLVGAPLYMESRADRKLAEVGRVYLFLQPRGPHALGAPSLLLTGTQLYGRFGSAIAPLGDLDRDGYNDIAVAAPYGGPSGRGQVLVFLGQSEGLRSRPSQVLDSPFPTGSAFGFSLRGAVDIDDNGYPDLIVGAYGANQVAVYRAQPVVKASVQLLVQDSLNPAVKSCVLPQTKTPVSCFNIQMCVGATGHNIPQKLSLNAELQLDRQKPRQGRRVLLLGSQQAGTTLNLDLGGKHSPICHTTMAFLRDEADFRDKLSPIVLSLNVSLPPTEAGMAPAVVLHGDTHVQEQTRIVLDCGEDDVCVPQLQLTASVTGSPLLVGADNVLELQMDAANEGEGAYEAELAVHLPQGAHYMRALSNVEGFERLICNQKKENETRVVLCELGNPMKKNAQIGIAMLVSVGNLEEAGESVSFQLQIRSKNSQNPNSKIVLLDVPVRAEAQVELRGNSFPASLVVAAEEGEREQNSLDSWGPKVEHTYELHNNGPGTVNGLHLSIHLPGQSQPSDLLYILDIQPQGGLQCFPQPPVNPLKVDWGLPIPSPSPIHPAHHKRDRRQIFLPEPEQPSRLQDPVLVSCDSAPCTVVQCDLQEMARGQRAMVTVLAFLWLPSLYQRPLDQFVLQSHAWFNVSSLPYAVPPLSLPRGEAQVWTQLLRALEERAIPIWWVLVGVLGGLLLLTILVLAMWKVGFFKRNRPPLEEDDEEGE
Chain of ADP-induced human platelet aggregation (P05106 27-788): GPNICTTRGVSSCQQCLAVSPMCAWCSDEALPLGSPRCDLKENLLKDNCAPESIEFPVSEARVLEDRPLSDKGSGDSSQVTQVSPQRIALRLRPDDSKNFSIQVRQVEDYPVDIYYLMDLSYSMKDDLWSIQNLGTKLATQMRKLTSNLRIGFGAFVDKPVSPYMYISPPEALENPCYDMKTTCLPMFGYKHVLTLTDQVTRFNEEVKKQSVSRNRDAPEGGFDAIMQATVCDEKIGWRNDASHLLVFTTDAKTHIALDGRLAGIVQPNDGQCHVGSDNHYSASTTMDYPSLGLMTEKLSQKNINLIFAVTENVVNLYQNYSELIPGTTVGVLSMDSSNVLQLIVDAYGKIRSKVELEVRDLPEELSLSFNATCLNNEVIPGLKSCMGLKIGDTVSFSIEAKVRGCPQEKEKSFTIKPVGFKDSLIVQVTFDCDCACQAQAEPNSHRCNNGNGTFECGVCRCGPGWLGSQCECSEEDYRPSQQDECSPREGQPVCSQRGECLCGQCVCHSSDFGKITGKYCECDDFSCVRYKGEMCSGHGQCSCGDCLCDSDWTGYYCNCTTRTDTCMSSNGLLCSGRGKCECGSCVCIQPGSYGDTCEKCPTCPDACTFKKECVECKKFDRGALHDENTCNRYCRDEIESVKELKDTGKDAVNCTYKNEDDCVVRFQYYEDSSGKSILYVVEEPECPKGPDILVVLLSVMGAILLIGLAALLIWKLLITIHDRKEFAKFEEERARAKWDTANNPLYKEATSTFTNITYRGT
T1 sequence (P08514 32-887 limits assumed): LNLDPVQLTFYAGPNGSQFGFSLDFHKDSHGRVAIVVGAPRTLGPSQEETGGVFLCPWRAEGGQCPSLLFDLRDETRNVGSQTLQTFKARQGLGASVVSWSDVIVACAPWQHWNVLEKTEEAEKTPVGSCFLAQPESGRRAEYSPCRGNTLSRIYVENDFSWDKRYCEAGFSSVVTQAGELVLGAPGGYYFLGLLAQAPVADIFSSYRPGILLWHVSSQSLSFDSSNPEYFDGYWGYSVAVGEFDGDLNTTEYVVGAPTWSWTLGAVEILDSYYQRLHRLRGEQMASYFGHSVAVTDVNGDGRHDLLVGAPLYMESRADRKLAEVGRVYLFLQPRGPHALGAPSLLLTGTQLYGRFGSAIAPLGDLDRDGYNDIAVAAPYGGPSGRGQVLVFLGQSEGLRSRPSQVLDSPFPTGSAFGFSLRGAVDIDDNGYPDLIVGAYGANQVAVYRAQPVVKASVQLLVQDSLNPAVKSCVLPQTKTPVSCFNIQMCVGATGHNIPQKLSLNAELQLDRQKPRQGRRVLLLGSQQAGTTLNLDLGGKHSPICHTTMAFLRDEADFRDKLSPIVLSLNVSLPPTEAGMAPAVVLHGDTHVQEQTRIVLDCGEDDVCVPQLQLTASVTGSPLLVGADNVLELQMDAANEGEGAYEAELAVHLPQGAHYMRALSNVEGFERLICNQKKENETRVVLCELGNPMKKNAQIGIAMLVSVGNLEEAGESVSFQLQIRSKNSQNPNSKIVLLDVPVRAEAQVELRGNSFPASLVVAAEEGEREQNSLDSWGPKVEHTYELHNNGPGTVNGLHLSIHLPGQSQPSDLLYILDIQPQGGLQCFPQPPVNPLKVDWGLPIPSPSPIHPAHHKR
T1 sequence (P08514 891-1039 limits assumed): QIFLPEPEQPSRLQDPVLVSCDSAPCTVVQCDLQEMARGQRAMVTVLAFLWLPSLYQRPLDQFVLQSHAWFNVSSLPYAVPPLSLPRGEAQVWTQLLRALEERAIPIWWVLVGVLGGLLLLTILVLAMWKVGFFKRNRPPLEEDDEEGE
T1 sequence (P05106 27-788): as the sequence (P05106 27-788) above
Chain of vitronectin receptor (P06756 31-889 limits assumed): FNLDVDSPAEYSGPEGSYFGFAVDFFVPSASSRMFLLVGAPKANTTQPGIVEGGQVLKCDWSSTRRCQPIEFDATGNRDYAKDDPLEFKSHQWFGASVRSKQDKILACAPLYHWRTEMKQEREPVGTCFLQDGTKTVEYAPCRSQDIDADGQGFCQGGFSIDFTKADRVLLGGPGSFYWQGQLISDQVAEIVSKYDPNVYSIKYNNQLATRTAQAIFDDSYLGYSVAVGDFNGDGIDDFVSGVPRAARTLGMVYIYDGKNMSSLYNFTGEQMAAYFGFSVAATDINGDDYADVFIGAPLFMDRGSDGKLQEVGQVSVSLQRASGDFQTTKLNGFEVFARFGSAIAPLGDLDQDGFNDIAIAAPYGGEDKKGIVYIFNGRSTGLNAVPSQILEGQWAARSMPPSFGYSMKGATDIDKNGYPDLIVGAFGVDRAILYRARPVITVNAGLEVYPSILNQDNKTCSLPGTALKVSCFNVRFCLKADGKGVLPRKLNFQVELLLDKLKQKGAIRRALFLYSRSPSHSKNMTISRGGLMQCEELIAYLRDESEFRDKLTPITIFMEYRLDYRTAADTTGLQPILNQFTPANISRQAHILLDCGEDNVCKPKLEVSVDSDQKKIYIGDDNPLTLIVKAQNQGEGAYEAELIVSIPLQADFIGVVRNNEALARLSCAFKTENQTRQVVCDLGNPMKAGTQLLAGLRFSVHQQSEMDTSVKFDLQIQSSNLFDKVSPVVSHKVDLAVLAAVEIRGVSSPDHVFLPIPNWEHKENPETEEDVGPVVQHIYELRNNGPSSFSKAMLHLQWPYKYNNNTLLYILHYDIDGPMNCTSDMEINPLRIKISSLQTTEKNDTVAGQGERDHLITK
Chain of vitronectin receptor (P06756 891-1048 limits assumed): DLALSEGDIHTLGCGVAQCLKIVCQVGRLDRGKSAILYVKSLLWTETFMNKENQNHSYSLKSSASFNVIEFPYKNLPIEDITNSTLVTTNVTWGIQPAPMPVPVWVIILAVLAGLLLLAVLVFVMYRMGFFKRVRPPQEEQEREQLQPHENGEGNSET
Chain of vitronectin receptor (P05106 27-788): as the sequence (P05106 27-788) above

On to `N=C(N)NCCCC[C@@H]1NC(=O)CCSSC[C@@H](C(N)=O)NC(=O)[C@@H]2CCCN2C(=O)[C@H](Cc2c[nH]c3ccccc23)NC(=O)[C@H](CC(=O)O)NC(=O)CNC1=O` [Analog #60, Mpr-(Har)-G-D-W-P-C-NH2] ([Mpa][hArg]GDWPC-NH2; disulfide 1-7 (inferred)), for which the “effect on cell adhesion / attachment to vitronectin (in words)” value (“effect on cell adhesion / attachment” below) with M21 melanoma cells is given as “relatively less effective”. For the same molecule, the “platelet aggregation inhibition activity (in words)” value in series [1] was “efficient at vanishingly small concentrations”.
Consider “Mpr-L-homoarginine-Gly-Asp-Trp-Pro-Cys-NH2 • acetate”, for which the “stability of liquid solution (in words)” value is listed as “very stable” in series [2] (Example 1: 2 mg/ml in citrate buffer pH 5.00 and 5.50, about 4°C); “still stable” in series [2] (Example 1: 2 mg/ml in citrate buffer pH 5.00 and 5.50, up to about 50°C); “much more stable” in series [2] (Example 1: citrate buffer pH 5.00 and 5.50, 70°C, in comparison to citrate buffer solutions at pH 6.0).
Consider `NCCCC[C@@H]1NC(=O)CNC(=O)[C@@H](N)CSSC[C@@H](C(N)=O)NC(=O)[C@@H]2CCCN2C(=O)[C@H](Cc2c[nH]c3ccccc23)NC(=O)[C@H](CC(=O)O)NC(=O)CNC1=O` [Analog #5] (H-CGKGDWPC-NH2; disulfide 1-8), for which the “platelet aggregation inhibition activity (in words)” value in series [1] was “excellent platelet aggregation inhibition activities”. In addition, the “differential: inhibiting the binding of fibrinogen to GP IIb-IIIa as compared to vitronectin to vitronectin receptor (in words)” value (“differential: inhibiting the binding” below) at GP IIb-IIIa is on record as “quite specific”.
As to `C[C@H](NC(=O)[C@@H]1CSSC[C@H](NC(=O)CN)C(=O)N[C@@H](CCCCN)C(=O)NCC(=O)N[C@@H](CC(=O)O)C(=O)N[C@@H](Cc2c[nH]c3ccccc23)C(=O)N1)C(N)=O` [Analog #7] (H-GCKGDWCA-NH2; disulfide 2-7), the “platelet aggregation inhibition activity (in words)” value in series [1] is “excellent platelet aggregation inhibition activities”. Further, the “differential: inhibiting the binding” value on GP IIb-IIIa is “quite specific”.
With “[E^28L^41C^64]barbourin (28-73):E-C-A-D-G-L-C-C-D-O-CRFLKKGTVCRVAKGDWNDDTCTG-O-S-C-D-C-P-R-N-G-L-Y-G [Analog #1]”, the “effect on cell adhesion / attachment” value in the series with M21 melanoma cells was “Neither barbourin nor Peptide 1 (truncated barbourin) had a significant effect”. Further, in series [1], the “platelet aggregation inhibition activity (in words)” value is listed as “potent inhibitors of platelet aggregation”. Also, the “affinity for GP IIb-IIIa (ability to inhibit the binding of fibrinogen to GP IIb-IIIa)” value at GP IIb-IIIa is listed as “high affinity”. The “affinity for VnR” value at vitronectin receptor is reported as “relative lack of affinity”.
`C[C@H](NC(=O)[C@@H]1CSSC[C@H](NC(=O)CN)C(=O)NCC(=O)N[C@@H](CCCCN)C(=O)NCC(=O)N[C@@H](CC(=O)O)C(=O)N[C@@H](Cc2c[nH]c3ccccc23)C(=O)N2CCC[C@H]2C(=O)N1)C(N)=O` [Analog #3, G-C-G-K-G-D-W-P-C-A-NH2]: in the series on M21 melanoma cells (up to 60 uM), the “effect on M21 cell attachment to vitronectin (in words)” value is reported as “ineffective”.
Take `NCCCC[C@@H]1NC(=O)CCSSC[C@@H](C(N)=O)NC(=O)[C@@H]2CCCN2C(=O)[C@H](Cc2c[nH]c3ccccc23)NC(=O)[C@H](CC(=O)O)NC(=O)CNC1=O` [Analog #19, Mpr-K-G-D-W-P-C-NH2] ([Mpa]KGDWPC-NH2; disulfide 1-7 (inferred)): the “platelet aggregation inhibition activity (in words)” value in series [1] is “good platelet aggregation inhibition activity”.
`C[C@H](NC(=O)[C@@H]1CSSC[C@H](NC(=O)CN)C(=O)N[C@@H](CCCCN)C(=O)NCC(=O)N[C@@H](CC(=O)O)C(=O)N[C@@H](Cc2c[nH]c3ccccc23)C(=O)N2CCC[C@H]2C(=O)N1)C(N)=O` [Analog #4] (H-GCKGDWPCA-NH2; disulfide 2-8): the “differential: inhibiting the binding” value at GP IIb-IIIa was “highest differential”.
Turning to Mpr-Ala-(Har)-G-D-W-P-C-NH2, the “stability by HPLC” value in series [3] (5°C, 0 days) stood at 99.6; in series [3] (5°C, 29 days), 98.1; in series [3] (5°C, 60 days), 98.3; in series [3] (5°C, 90 days), 97.3; in series [3] (30°C, 29 days) it was 97.3; in series [3] (30°C, 60 days), 97.3. Besides, the “stability by HPLC” value in series [3] (30°C, 90 days) is 96.5; in series [3] (45°C, 29 days), 95.4; in series [3] (45°C, 60 days), 92.6; in series [3] (45°C, 90 days), 90.6.
Take `C[C@H](NC(=O)[C@@H]1CSSC[C@H](NC(=O)CN)C(=O)NCC(=O)N[C@@H](CCCNC(=N)N)C(=O)NCC(=O)N[C@@H](CC(=O)O)C(=O)N[C@@H](Cc2c[nH]c3ccccc23)C(=O)N2CCC[C@H]2C(=O)N1)C(N)=O` [reference compound] (H-GCGRGDWPCA-NH2; disulfide 2-9): in the series with M21 melanoma cells, the “effect on cell adhesion / attachment” value is “potent inhibitors of cell attachment”.
